# Reference: patent US20140206681A1, “BTK INHIBITORS” (priority 2013, published 2014)
# What was measured:
# HeLa cells = experiment: [3H]Adenosine uptake functional cellular assay; type: cell-based; conditions: Homo sapiens, HeLa, accumulation of [3H]adenosine into HeLa cells; compound range 10 μM to […]; read-out: Adenosine uptake inhibition IC50
# Procedure, shortened: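 Inhibition of adenosine uptake was measured in HeLa cells (ATCC CCL-2) by following accumulation of tritiated adenosine. Cells were kept overnight at 37° C. with 5% (v/v) CO2, then switched to 40 μL HBSS plus 5% (v/v) FBS. 20 μL of 500 nM [3H]adenosine was added, and uptake was counted on a Topcount NXT reader.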
# [1] = biological target: T1, BTK enzyme (recombinant full-length BTK, hBTK) (Homo sapiens, UniProt Q06187); experiment: BTK enzyme activity assay, LANCE TR-FRET; type: biochemical; conditions: 50 pM hBTK, 2 μM biotin-A5-peptide, 25 μM ATP; 60 min compound & enzyme incubation; read-out: IC50 BTK activity value
# T1 construct: recombinant protein from baculovirus-transfected Sf9 cells: full-length BTK, 6HIS-tag cleaved; 6HIS (cleaved yes); made in house; host or cells: baculovirus-transfected Sf9 cells
# T1 sequence (Q06187 whole entry): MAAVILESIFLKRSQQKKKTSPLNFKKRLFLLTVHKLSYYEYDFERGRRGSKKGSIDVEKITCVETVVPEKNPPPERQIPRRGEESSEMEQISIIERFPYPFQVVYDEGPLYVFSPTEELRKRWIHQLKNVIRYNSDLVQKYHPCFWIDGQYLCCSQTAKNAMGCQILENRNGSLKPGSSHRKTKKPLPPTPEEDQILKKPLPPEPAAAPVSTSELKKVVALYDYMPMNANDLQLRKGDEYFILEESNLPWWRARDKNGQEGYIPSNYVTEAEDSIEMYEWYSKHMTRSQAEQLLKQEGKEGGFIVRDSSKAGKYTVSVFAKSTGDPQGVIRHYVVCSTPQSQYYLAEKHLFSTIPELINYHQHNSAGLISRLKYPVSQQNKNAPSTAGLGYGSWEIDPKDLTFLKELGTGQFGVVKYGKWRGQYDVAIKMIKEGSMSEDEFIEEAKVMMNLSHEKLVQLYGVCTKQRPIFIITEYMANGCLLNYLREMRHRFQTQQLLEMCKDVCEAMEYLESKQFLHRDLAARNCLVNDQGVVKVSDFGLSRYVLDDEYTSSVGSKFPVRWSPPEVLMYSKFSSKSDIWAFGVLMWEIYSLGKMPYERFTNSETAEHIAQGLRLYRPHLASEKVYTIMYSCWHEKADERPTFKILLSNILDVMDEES
IC50 (HeLa cells),IC50 [1],Structure (SMILES)
682 nM,24.9 nM,"Nc1nccn2c([C@H]3CN4C(=O)OC[C@H]4CO3)nc(-c3ccc(C(=O)Nc4cc(C(F)(F)F)ccn4)cc3)c12 [Example 76, 4-(8-amino-3-((6R,8aR)-3-oxohexa hydrooxazolo[4,3-c][1,4]oxazin-6-yl)imidazo[1,5-a]pyrazin-1-yl)-N-(4-(trifluoromethyl)pyridin-2-yl)benzamide]"
31.2 nM,0.13 nM,"C[C@H]1OC[C@@H]2CC[C@@H](c3nc(-c4ccc(C(=O)Nc5cc(C(F)(F)F)ccn5)cc4)c4c(N)nccn34)CN2C1=O [Example 77, 4-(8-amino-3-((3R,7R,9aS)-3-methyl-4-oxooctahydropyrido[2,1-c][1,4]oxazin-7-yl)imidazo[1,5-a]pyrazin-1-yl)-N-(4-(trifluoromethyl)pyridin-2-yl)benzamide]"
132 nM,0.46 nM,"N#C/N=C1\CC[C@@H]2CC[C@@H](c3nc(-c4ccc(C(=O)Nc5cc(C(F)(F)F)ccn5)cc4)c4c(N)nccn34)CN12 [Example 78, 4-(8-amino-3-((6R,8aS,E)-3-(cyanoimino)octahydroindolizin-6-yl)imidazo[1,5-a]pyrazin-1-yl)-N-(4-(trifluoromethyl)pyridin-2-yl)benzamide]"
295 nM,7.3 nM,"COC(=O)Nc1nccn2c([C@@H]3CC[C@H]4CCC(=O)N4C3)nc(-c3ccc(C(=O)Nc4cc(C(F)(F)F)ccn4)cc3)c12 [Example 79, methyl (3-((6R,8aS)-3-oxooctahydroindolizin-6-yl)-1-(4-((4-(trifluoromethyl)pyridin-2-yl)carbamoyl)phenyl)imidazo[1,5-a]pyrazin-8-yl)carbamate]"
82.5 nM,0.27 nM,"CCN1CC(=O)N2C[C@H](c3nc(-c4ccc(C(=O)Nc5cc(C(F)(F)F)ccn5)cc4)c4c(N)nccn34)CC[C@H]2C1 [Example 80, 4-(8-amino-3-((7R,9aS)-2-ethyl-4-oxooctahydro-1H-pyrido[1,2-a]pyrazin-7-yl)imidazo[1,5-a]pyrazin-1-yl)-N-(4-(trifluoromethyl)pyridin-2-yl)benzamide]"
68.6 nM,0.29 nM,CC(C)N1CC(=O)N2C[C@H](c3nc(-c4ccc(C(=O)Nc5cc(C(F)(F)F)ccn5)cc4)c4c(N)nccn34)CC[C@H]2C1 [Example 81]
78.1 nM,0.19 nM,COC(=O)CN1CC(=O)N2C[C@H](c3nc(-c4ccc(C(=O)Nc5cc(C(F)(F)F)ccn5)cc4)c4c(N)nccn34)CC[C@H]2C1 [Example 82]
75.5 nM,0.67 nM,"Nc1nccn2c([C@@H]3CC[C@H]4CCCN4C3)nc(-c3ccc(C(=O)Nc4cc(C(F)(F)F)ccn4)cc3)c12 [Example 87, 4-(8-amino-3-((6R,8aS)-octahydroindolizin-6-yl)imidazo[1,5-a]pyrazin-1-yl)-N-(4-(trifluoromethyl)pyridin-2-yl)benzamide]"
490 nM,0.13 nM,"COc1cc(C(=O)Nc2cc(C(F)(F)F)ccn2)ccc1-c1nc([C@@H]2CC[C@H]3[C@@H](C)OC(=O)N3C2)n2ccnc(N)c12 [Example 89, 4-(8-amino-3-((1R,6R,8aS)-1-methyl-3-oxohexahydro-1H-oxazolo[3,4-a]pyridin-6-yl)imidazo[1,5-a]pyrazin-1-yl)-3-methoxy-N-(4-(trifluoromethyl)pyridin-2-yl)benzamide]"
639 nM,0.52 nM,"COc1cc(C(=O)Nc2cc(C(F)(F)F)ccn2)ccc1-c1nc([C@H]2CN3C(=O)CC[C@@H]3CO2)n2ccnc(N)c12 [Example 91, 4-(8-amino-3-((3R,8aR)-6-oxohexahydro-1H-pyrrolo[2,1-c][1,4]oxazin-3-yl)imidazo[1,5-a]pyrazin-1-yl)-3-methoxy-N-(4-(trifluoromethyl)pyridin-2-yl)benzamide]"
64.6 nM,0.075 nM,"Nc1nccn2c([C@@H]3CC[C@H]4CCOC(=O)N4C3)nc(-c3ccc(C(=O)Nc4cc(C(F)(F)F)ccn4)cc3)c12 [Example 92, 4-{8-amino-3-[(4aS,7R)-1-oxohexahydro-3H-pyrido[1,2-c][1,3]oxazin-7-yl]imidazo[1,5-a]pyrazin-1-yl}-N-[4-(trifluoromethyl)pyridin-2-yl]benzamide]"
158 nM,2.6 nM,"Nc1nccn2c([C@H]3CC[C@@H]4CCOC(=O)N4C3)nc(-c3ccc(C(=O)Nc4cc(C(F)(F)F)ccn4)cc3)c12 [Example 93, 4-{8-amino-3-[(4aR,7S)-1-oxohexahydro-3H-pyrido[1,2-c][1,3]oxazin-7-yl]imidazo[1,5-a]pyrazin-1-yl}-N-[4-(trifluoromethyl)pyridin-2-yl]benzamide]"
63.2 nM,0.14 nM,"CC1(C)C[C@H]2CC[C@H](c3nc(-c4ccc(C(=O)Nc5cc(C(F)(F)F)ccn5)cc4)c4c(N)nccn34)CN2C1=O [Example 94, 4-{8-amino-3-[(6S,8aR)-2,2-dimethyl-3-oxooctahydroindolizin-6-yl]imidazo[1,5-a]pyrazin-1-yl}-N-[4-(trifluoromethyl)pyridin-2-yl]benzamide]"
1140 nM,1.3 nM,"C[C@@H]1OC(=N)N2C[C@H](c3nc(-c4ccc(C(=O)Nc5cc(C(F)(F)F)ccn5)cc4)c4c(N)nccn34)CC[C@@H]12 [Example 96, 4-{8-amino-3-[(1S,6R,8aS)-3-imino-1-methylhexahydro[1,3]oxazolo[3,4-a]pyridin-6-yl]imidazo[1,5-a]pyrazin-1-yl}-N-[4-(trifluoromethyl)pyridin-2-yl]benzamide]"
5380 nM,9.7 nM,"CC(O)c1ccnc(NC(=O)c2ccc(-c3nc([C@@H]4CC[C@H]5CCC(=O)N5C4)n4ccnc(N)c34)cc2)c1 (stereo partly drawn) [Example 97, 4-{8-amino-3-[(6R,8aS)-3-oxooctahydroindolizin-6-yl]imidazo[1,5-a]pyrazin-1-yl}-N-[4-(1-hydroxyethyl)pyridin-2-yl]benzamide]"
6320 nM,49.3 nM,"CC(C)(O)c1ccnc(NC(=O)c2ccc(-c3nc([C@@H]4CC[C@H]5CCC(=O)N5C4)n4ccnc(N)c34)cc2)c1 [Example 98, 4-{8-amino-3-[(6R,8aS)-3-oxooctahydroindolizin-6-yl]imidazo[1,5-a]pyrazin-1-yl}-N-[4-(1-hydroxy-1-methylethyl)pyridin-2-yl]benzamide]"
184 nM,1.5 nM,"COC(C)c1ccnc(NC(=O)c2ccc(-c3nc([C@@H]4CC[C@H]5CCC(=O)N5C4)n4ccnc(N)c34)cc2)c1 (stereo partly drawn) [Example 99, 4-{8-amino-3-[(6R,8aS)-3-oxooctahydroindolizin-6-yl]imidazo[1,5-a]pyrazin-1-yl}-N-[4-(1-methoxyethyl)pyridin-2-yl]benzamide]"
463 nM,0.51 nM,"COc1cc(C(=O)Nc2cc(C(F)(F)F)ccn2)ccc1-c1nc([C@@H]2CC[C@H]3CC(C)(C)C(=O)N3C2)n2ccnc(N)c12 [Example 100, 4-{8-amino-3-[(6R,8aS)-2,2-dimethyl-3-oxooctahydroindolizin-6-yl]imidazo[1,5-a]pyrazin-1-yl}-3-methoxy-N-[4-(trifluoromethyl)pyridin-2-yl]benzamide]"
487 nM,45.4 nM,"COc1cc(C(=O)Nc2cc(C(F)(F)F)ccn2)ccc1-c1nc([C@H]2CC[C@@H]3CC(C)(C)C(=O)N3C2)n2ccnc(N)c12 [Example 101, 4-{8-amino-3-[(6S,8aR)-2,2-dimethyl-3-oxooctahydroindolizin-6-yl]imidazo[1,5-a]pyrazin-1-yl}-3-methoxy-N-[4-(trifluoromethyl)pyridin-2-yl]benzamide]"
471 nM,0.21 nM,"Nc1nccn2c([C@@H]3CC[C@H]4CN(C(=O)c5ccncc5)CC(=O)N4C3)nc(-c3ccc(C(=O)Nc4cc(C(F)(F)F)ccn4)cc3)c12 [Example 102, 4-{8-amino-3-[(7R,9aS)-4-oxo-2-(pyridin-4-ylcarbonyl)octahydro-2H-pyrido[1,2-a]pyrazin-7-yl]imidazo[1,5-a]pyrazin-1-yl}-N-[4-(trifluoromethyl)pyridin-2-yl]benzamide]"
69.3 nM,0.4 nM,"COC(=O)c1ccnc(NC(=O)c2ccc(-c3nc([C@@H]4CC[C@H]5CCC(=O)N5C4)n4ccnc(N)c34)cc2)c1 [Example 103, methyl 2-{[(4-{8-amino-3-[(6R,8aS)-3-oxooctahydroindolizin-6-yl]imidazo[1,5-a]pyrazin-1-yl}phenyl)carbonyl]amino}pyridine-4-carboxylate]"
303 nM,1.2 nM,"Nc1nccn2c([C@@H]3CC[C@H]4CCC(=O)N4C3)nc(-c3ccc(C(=O)Nc4cc(C(F)(F)F)cnn4)cc3)c12 [Example 104, 4-{8-amino-3-[(6R,8aS)-3-oxooctahydroindolizin-6-yl]imidazo[1,5-a]pyrazin-1-yl}-N-[5-(trifluoromethyl)pyridazin-3-yl]benzamide]"
193 nM,0.19 nM,"Nc1nccn2c([C@@H]3CC[C@H]4CCC(=O)N4C3)nc(-c3ccc(C(=O)Nc4cc5ccccc5cn4)cc3)c12 [Example 106, 4-{8-amino-3-[(6R,8aS)-3-oxooctahydroindolizin-6-yl]imidazo[1,5-a]pyrazin-1-yl}-N-isoquinolin-3-ylbenzamide]"

Structure (SMILES),IC50 (HeLa cells),IC50 [1]
"COc1cc(C(=O)Nc2cc(C(F)(F)F)ccn2)ccc1-c1nc([C@@H]2CC[C@@H]3N(C2)C(=O)OC3(C)C)n2ccnc(N)c12 [Example 90, 4-(8-amino-3-((6R,8aS)-1,1-dimethyl-3-oxohexahydro-1H-oxazolo[3,4-a]pyridin-6-yl)imidazo[1,5-a]pyrazin-1-yl)-3-methoxy-N-(4-(trifluoromethyl)pyridin-2-yl)benzamide]",373 nM,0.18 nM
